Assay results from article PMC5219024, “New acetylenic derivatives of betulin and betulone, synthesis and cytotoxic activity” (Medicinal Chemistry Research, 2016).
Converted amounts (≈) assume the structure as drawn.

Tests used:
[1] = test system: cyprid larvae of the barnacle Balanus albicostatus; parameters: method as in Chen et al., [2011]; conditions: ref Chen et al., [2011]; cited from earlier work
[2] = test system: mouse melanoma (B16 2F2) cell line; parameters: method as in Hata et al., [2002]; conditions: ref Hata et al., [2002], read-out: anticancer effect IC50, B16 2F2; cited from earlier work
[3] = test system: HL-60 (human promyelocytic leukemia); assay: Antiproliferative assay in vitro (MTT), HL-60; type: cell-based; conditions: for IC50: Homo sapiens, HL-60 cancer cell line, 96 h exposure, read-out: Cytotoxic activity IC50, HL-60
Protocol: (§1) The tested cell lines were obtained from the American Type Culture Collection (Rockville, Maryland, USA) and maintained at the Cell Culture Collection of the Institute of Immunology and Experimental Therapy (Wrocław, Poland). The cells were seeded in 96-well plates (Sarstedt, USA) at a density of 10^4 cells per well in 100 µL of culture medium overnight. […] The normal mouse fibroblasts BALB3T3 was cultured in Dulbecco’s modified Eagle’s medium (Sigma-Aldrich, Chemie GmbH, Steinheim, Germany) supplemented with 2 mM glutamine (Sigma-Aldrich, Chemie GmbH, Steinheim, Germany) and 10 % fetal calf serum FBS (Sigma-Aldrich, Chemie GmbH, Steinheim, Germany). The all culture media were supplemented with streptomycin (100 µg/mL) and penicillin (100 U/mL) (both antibiotics from Polfa, Tarchomin, Poland). The cell cultures were maintained at 37 °C in humid atmosphere saturated with 5 % CO2. The MTT assay was used for the cytotoxicity screening against leukemia cells growing in suspension culture. This assay was performed after 96 h of the leukemia cells to varying concentrations (ranging from 1 to 100 µg/mL) of the tested substances. The derivatives of betulin were dissolved in 10 % DMSO to concentration of 1 mg/mL, and next diluted in culture medium to reach the required concentrations. […] During the last 3–4 h of incubation 20 µl of MTT solution were added to each well (MTT: 3-(4,5-dimethylthiazol-2-yl)-2,5-diphenyl tetrazolium bromide; stock solution: 5 mg/mL). The pale yellow MTT is reduced to a navy blue formazan in the mitochondria of living cells. At the end of incubation time, 80 µL of the lysing mixture was added to each well (lysing mixture: 225 mL dimethylformamide, 67.5 g sodium dodecyl sulfate and 275 mL of distilled water). After 24 h are formed the crystals of formazan, which are insoluble in aqueous solutions. The formazan crystals had been dissolved. The optical densities were read on a Multiskan RC photometer at 570 nm wavelength. The compounds in given concentration were examined in triplicates in each experiment which was repeated 3–5 times. The results of cytotoxic activity in vitro were expressed as an IC50 in µg/mL.

[4] = test system: T47D (human breast cancer); parameters: method as in Boryczka et al. ([2013a], [b]); conditions: Neg = negative in the concentration used, ref Boryczka et al. ([2013a], [b]); cited from earlier work
SW707 (human colorectal) [5] = test system: SW707 (human colorectal); parameters: method as in Boryczka et al. ([2013a], [b]); conditions: Neg = negative in the concentration used, ref Boryczka et al. ([2013a], [b]); cited from earlier work
[6] = test system: CCRF/CEM (human leukemia); parameters: method as in Boryczka et al. ([2013a], [b]); conditions: Neg = negative in the concentration used, ref Boryczka et al. ([2013a], [b]); cited from earlier work
P388 (mouse leukemia) [7] = test system: P388 (mouse leukemia); parameters: method as in Boryczka et al. ([2013a], [b]); conditions: murine P388; Neg = negative in the concentration used; ref Boryczka et al. ([2013a], [b]); cited from earlier work
[8] = test system: BALB3T3 normal mouse fibroblasts; parameters: method as in Boryczka et al. ([2013a], [b]); conditions: murine BALB3T3 normal fibroblasts; Neg = negative in the concentration used; ref Boryczka et al. ([2013a], [b]); cited from earlier work
[9] = test system: CCRF/CEM (human leukemia); assay: Antiproliferative assay in vitro (MTT), CCRF/CEM; type: cell-based; conditions: human CCRF/CEM; 96 h exposure; 1 to 100 µg/mL; Neg = negative in the concentration used; read-out: Cytotoxic activity IC50, CCRF/CEM
Protocol: as §1

SW707 (human colorectal) [10] = assay: Antiproliferative assay in vitro (SRB), SW707; type: cell-based; conditions: human SW707; 96 h exposure; 1 to 100 µg/mL; Neg = negative in the concentration used; read-out: Cytotoxic activity IC50, SW707
Protocol: (§2) The tested cell lines were obtained from the American Type Culture Collection (Rockville, Maryland, USA) and maintained at the Cell Culture Collection of the Institute of Immunology and Experimental Therapy (Wrocław, Poland). The cells were seeded in 96-well plates (Sarstedt, USA) at a density of 10^4 cells per well in 100 µL of culture medium overnight. […] The normal mouse fibroblasts BALB3T3 was cultured in Dulbecco’s modified Eagle’s medium (Sigma-Aldrich, Chemie GmbH, Steinheim, Germany) supplemented with 2 mM glutamine (Sigma-Aldrich, Chemie GmbH, Steinheim, Germany) and 10 % fetal calf serum FBS (Sigma-Aldrich, Chemie GmbH, Steinheim, Germany). The all culture media were supplemented with streptomycin (100 µg/mL) and penicillin (100 U/mL) (both antibiotics from Polfa, Tarchomin, Poland). The cell cultures were maintained at 37 °C in humid atmosphere saturated with 5 % CO2. This technique as first was described by Skehan et al. in [1990]. The SRB assay was performed after 96 h exposure of the cultured cells to varying concentrations (ranging from 1 to 100 µg/mL) of the tested substances. The reported derivatives as well as betulin 1 were dissolved in 10 % dimethyl sulfoxide (DMSO) to concentration of 1 mg/mL, and next diluted in culture medium to reach the required concentrations. […] The cells fastened to the plastic were fixed mildly layering cold 50 % TCA (trichloroacetic acid, Aldrich-Chemie, Germany) on the top of the culture medium in each well. The plates were incubated at 4 °C for 1 h and then washed five times with tap water. The cells fixed with TCA were stained with 0.4 % sulforhodamine B (SRB, Sigma, Germany) dissolved in 1 % acetic acid (POCH, Gliwice, Poland) for 30 min. The unbound dye was removed by rinsing four times with 1 % acetic acid. The protein-bound dye was extracted with 10 mM unbuffered tris base (POCH, Gliwice, Poland) and then determined the optical density at 540 nm in a computer-interfaced, 96-well microtiter plate reader Multiscan RC photometer (Labsystems, Helsinki, Finland). The compounds in given concentration were examined in triplicates in each experiment which was repeated 3–5 times. The results of cytotoxic activity in vitro were expressed as an IC50 in µg/mL.

[11] = test system: T47D (human breast cancer); assay: Antiproliferative assay in vitro (SRB), T47D; type: cell-based; conditions: human T47D; 96 h exposure; 1 to 100 µg/mL; Neg = negative in the concentration used; read-out: Cytotoxic activity IC50, T47D
Protocol: as §2

P388 (mouse leukemia) [12] = assay: Antiproliferative assay in vitro (MTT), P388; type: cell-based; conditions: Mus musculus; murine P388; 96 h exposure; 1 to 100 µg/mL; Neg = negative in the concentration used; read-out: Cytotoxic activity IC50, P388
Protocol: as §1

[13] = Antiproliferative assay in vitro (SRB), BALB3T3; type: cell-based, mouse; conditions: mouse; murine BALB3T3 normal fibroblasts; 96 h exposure; 1 to 100 µg/mL; Neg = negative in the concentration used; read-out: Cytotoxic activity IC50, BALB3T3
Protocol: as §2

SMILES | antifouling activity EC50 [1] | IC50 [2] | IC50 [3] | Cytotoxic activity IC50, T47D [4] | Cytotoxic activity IC50, SW707 (SW707 (human colorectal) [5]) | Cytotoxic activity IC50, CCRF/CEM [6] | Cytotoxic activity IC50, P388 (P388 (mouse leukemia) [7]) | Cytotoxic activity IC50, BALB3T3 [8] | fold potent than betulin 1 against HL-60 ([3]; relative to betulin 1, HL-60) | IC50 [9] | IC50 (SW707 (human colorectal) [10]) | IC50 [11] | melting point | IC50 (P388 (mouse leukemia) [12]) | IC50 at 96 h [13]
C=C(C)[C@@H]1CC[C@]2(CO)CC[C@]3(C)[C@H](CC[C@@H]4[C@@]5(C)CCC(=O)C(C)(C)[C@@H]5CC[C@]43C)[C@@H]12 [Betulone 2, lup-20(29)-en-28-ol-3-one] | 8.73 µg/mL | 29.3 µM | – | – | – | – | – | – | – | – | – | – | – | – | –
C=C(C)[C@@H]1CC[C@]2(COC(=O)CC)CC[C@]3(C)C(CCC4[C@@]5(C)CC[C@H](O)C(C)(C)C5CC[C@]43C)C12 (stereo partly drawn) [Compound 3] | – | – | 29.3 ± 3.4 µg/mL (≈ 58.7 µM) | 12.1 ± 4.4 µg/mL | 29.2 ± 24.4 µg/mL | 8.1 ± 0.9 µg/mL | 3.3 ± 0.8 µg/mL | 32.3 ± 23.0 µg/mL | – | – | – | – | – | – | –
C#CC(=O)OC[C@]12CC[C@@H](C(=C)C)C1C1CCC3[C@@]4(C)CC[C@H](O)C(C)(C)C4CC[C@@]3(C)[C@]1(C)CC2 (stereo partly drawn) [Compound 5, 28-O-propynoylbetulin] | – | – | 0.3 ± 0.004 µg/mL (≈ 0.606 µM) | 9.1 ± 1.9 µg/mL | 14.9 ± 3.3 µg/mL | 0.02 ± 0.001 µg/mL | 0.4 ± 0.1 µg/mL | 0.3 ± 0.05 µg/mL | 24 fold | – | – | – | – | – | –
C=C(C)[C@@H]1CC[C@]2(COC(=O)C#Cc3ccccc3)CC[C@]3(C)C(CCC4[C@@]5(C)CC[C@H](O)C(C)(C)C5CC[C@]43C)C12 (stereo partly drawn) [Compound 7] | – | – | – | Neg | Neg | 49.0 ± 9.8 µg/mL | Neg | Neg | – | – | – | – | – | – | –
C=C(C)[C@@H]1CC[C@]2(COC(=O)C#CC)CC[C@]3(C)C(CCC4[C@@]5(C)CC[C@H](O)C(C)(C)C5CC[C@]43C)C12 (stereo partly drawn) [Compound 9, 28-O-(2-Butynoyl)betulin] | – | – | 24.5 ± 1.9 µg/mL (≈ 48.2 µM) | – | – | – | – | – | – | 2.1 ± 0.3 µg/mL (≈ 4.13 µM) | 24.3 ± 8.8 µg/mL (≈ 47.8 µM) | 16.7 ± 5.5 µg/mL (≈ 32.8 µM) | 111 to 113 °C | 2.9 ± 1.4 µg/mL (≈ 5.7 µM) | 17.4 ± 1.1 µg/mL (≈ 34.2 µM)
